Entries after “also recorded” stand apart in the source; their conditions may differ.
Columns and labels:
Lewis rats [1] = experiment: Rat posterolateral intertransverse process spinal fusion L4-L5 (Example 6); format: in vivo; conditions: Group 1: BBP 500 μg only, week 8
Protocol: All rats underwent post-operative radiography at 2, 4, 6, and 8 weeks. Manual spinal palpation was performed at 8 weeks, the time of sacrifice. Bone formation was assessed in histological sections stained with H&E.

male Swiss-Weber mice = experiment: Mouse hindquarter (muscle pouch) ectopic bone formation assay, BBP; format: in vivo; conditions: for Bone Area / Bone Mineral Content: densitometry
Protocol: Methods: The osteogenic activity of material was tested using male Swiss-Weber mice aged 8 to 10 weeks were used (Taconic Farms, Germantown, N.Y.). Prior to the assay, the BBP was solublized and lyophilized into 2 mg of atelocollagen. The dried material was placed in a #5 gelatin capsule and sterilized by exposure to chloroform vapor. To conduct the assay, mice were anesthetized using 1% isoflurane delivered in oxygen at 2 l/min through a small animal anesthesia machine (VetEquip, Pleasanton, Calif.). Animals were affixed to a surgery board and the fur over the hindquarters shaved. The skin was cleaned with 70% ethanol and a midline incision made over the spine adjacent to the hindquarters. Blunt dissection with scissors was used to expose the quadriceps muscle on one side. A small pouch was made in the muscle using the point of scissors and the #5 capsule containing the test material was inserted into the pouch. The skin was then closed with three 11 mm Michel surgical clips and the animal returned to its cage for monitoring.
After 21 days the animals were killed and the hindquarter removed. Radiological examination of the specimens was accomplished using a small parts X-Ray cabinet (Faxitron, Wheeling, Ill.). For quantization of bone formation, bone area and the bone mineral content (BMC) of an area of interest encompassing the site of ectopic bone formation was determined using a PIXImus2 small animal densitometer (GE Lunar, Madison, Wis.). Specimens were then placed in buffered formalin and submitted for routine processing for histological examination.

rhBMP-2 [2] = target: T1, rhBMP-2 (Homo sapiens, UniProt P12643); experiment: Residence time study: BBP and rhBMP-2 on collagen sponges in muscle pouches; format: in vivo, rodents
T1 sequence (P12643 283-396): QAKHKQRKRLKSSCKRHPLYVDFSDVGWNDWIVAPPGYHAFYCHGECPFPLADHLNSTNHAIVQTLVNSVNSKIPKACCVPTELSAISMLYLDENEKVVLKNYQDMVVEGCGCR
Excerpt: Methods: Labeled rhBMP-2 was mixed with BBP or vehicle and applied to collagen sponges. The sponges were implanted into muscle pouches in rodents. At specified times (1, 3 and 7 days), the implants were removed and the amount of BMP remaining determined. Four animals were used in each group.

rhBMP-2 [3] = target: T1, rhBMP-2; experiment: Surface plasmon resonance, interaction of rhBMP-2 and BBP; format: binding; conditions: BBP decyclized by prior reduction with β-mercaptoethanol
Protocol: Buffers and chips for the procedure were obtained from Biacore. […] This material was then attached to a CM-5 sensor chip using reagents and procedures supplied by the manufacturer. Running butter was 10 mM HEPES, pH 7.4, 150 mM NaCl, 3 mM EDTA, 0.005% Surfactant P20, The peptide was dissolved in running buffer at concentrations ranging from 1×10^−5 to 1×10^−4 M. Flow rates from 5 to 50 μl/mm and injection volumes of 20 to 100 μl were employed. The regeneration solution was […] glycine-HCl, pH 2.0.

Lewis rats [4] = experiment: Rat posterolateral intertransverse process spinal fusion L4-L5 (Example 7); format: in vivo; conditions: week 8
Protocol: Methods: Five groups of 50 Lewis rats each underwent posterolateral intertransverse process spinal fusion at vertebrae L4-L5 with implanted: BBP (500 μg) (Group 1); BBP (1000 μg) (Group 2), collagen plus low dose BMP-2 (1 μg) (Group 3), BBP (500 μg) plus low dose BMP (1 μg) (Group 4) and BBP (1000 μg) plus low dose BMP (1 μg) (Group 5). Control groups included a negative group (decortication) and positive control group (collagen plus 3 μg BMP).
All rats underwent post-operative radiography at 2, 4, 6, and 8 weeks. Manual spinal palpation was performed at 8 weeks, after the time of sacrifice. Bone formation was assessed in histological sections stained with H&E.

Lewis rats [5] = experiment: Rat posterolateral intertransverse process spinal fusion L4-L5 (Example 8); format: in vivo; conditions: for Histology, fused / Manual Palpation, fused: 8th week
Protocol: Methods: Posterolateral intertransverse process spinal fusion at L4-L5 was performed in five treatment groups of Lewis rats each, and collagen sponges (5×5×13 mm) were implanted into the surgical sites.
Each sponge was placed in a sterile microfuge tube and either a suspension of BBP (500 μg or 1000 μg) in water or sterile water alone was applied. The sponges were allowed to air dry in a tissue culture hood overnight and then placed at −70° C. for an hour and lyophilized overnight. The tubes (with small holes in the top to allow for lyophilization) were placed in autoclave pouches and sealed. The materials were then sterilized by exposure to chloroform vapor for at least 4 hours.
The posterolateral intertransverse process spinal fusion at L4-L5 in the rat is a well established procedure in our laboratory 13-17. Briefly, the animal was anesthetized with isofluane and the surgical site was shaved and propped with Betadyne and alcohol. A 3 cm longitudinal midline incision was made through the skin and subcutaneous tissue over L4-L5 down to the lumbodorsal fascia. Then, two separate 2 cm longitudinal paramedial incisions were made in the erector spinae muscles on both sides of L4-L5. The transverse processes of L4-L5 were exposed, cleaned of soft tissue, and decorticated with a high-speed burr. The site was irrigated with saline and the therapeutic test material was placed. The lumbodorsal fascia was closed with 4-0 Prolene (Ethicon, Somerville, N.J.). The skin was closed with 4-0 Prolene and meticulous post-operative care was provided.
These were compared to control groups. Fusion was evaluated by radiology, histology and manual palpation tests. Animals were sacrificed 8 weeks after surgery.
The results of the surgeries were assessed radiologically, histologically, and by manual palpation. Posteroanterior radiographs were obtained using a small parts X-ray cabinet (Faxitron Corp., Wheeling, Ill.) on each animal at 2, 4, 6 and 8 weeks. Radiograms were evaluated by three independent observers employing the following standardized scale: 0: no fusion; 1: incomplete fusion with bone formation present; and 2: complete fusion. The scores from the three observes were added and a total of 5 or 6 was regarded as “fused”. Manual palpation of the spine was performed at the time of sacrifice at 8 weeks. To simulate the gold standard for determining fusion in humans, exploration and manual palpation of the fusion mass were performed after death. The level fused was manually palpated with Adson forceps and compared with the adjacent nonfused levels. Each specimen was graded as fused or non-fused by three independent observers. The spine was designated as “not fused” if any of the three observers graded the spine as not fused. After manual palpation, the specimens were decalcified using standard 10% decalcifying solution HCl (Cal-Ex, Fisher Scientific, Fairlawn, N.J.), washed with running tap water, then transferred to 75% ethanol. Sagittal sections were cut carefully at the level of the transverse process. The specimens were imbedded in paraffin and sections of each specimen obtained. These sections were stained with hematoxylin and eosin. They were evaluated by an independent observer as fused and not fused.
The proportions of subjects in each group judged to be “fused” were compared in sequential two group comparisons with Fisher's exact test using SPSS software. A p score of less than or equal to 0.05 was set for statistical significance.

[6] = BBP 50 μg implanted with 5 μg rhBMP-2, 21 days
[7] = BBP 500 μg implanted with 5 μg rhBMP-2, 21 days

SMILES: CSCC[C@@H]1NC(=O)[C@H](CCCNC(=N)N)NC(=O)[C@H](C(C)C)NC(=O)[C@H]([C@@H](C)O)NC(=O)[C@H](CO)NC(=O)[C@H](CCCNC(=N)N)NC(=O)[C@@H](N)CSSC[C@@H](C(=O)O)NC(=O)[C@H](CCCNC(=N)N)NC(=O)[C@H](C(C)C)NC(=O)[C@H](Cc2c[nH]c3ccccc23)NC(=O)[C@H](C(C)C)NC(=O)[C@H](CC(N)=O)NC(=O)[C@H](CCC(N)=O)NC(=O)[C@H](C(C)C)NC(=O)[C@H](CCC(N)=O)NC(=O)[C@H](CCC(=O)O)NC(=O)[C@H](C)NC(=O)[C@H](CO)NC1=O [BBP]
- Fusion Rates (Lewis rats [1]): 14%
- calcification after implantation of BBP alone (male Swiss-Weber mice; 500 μg BBP in atelocollagen, mouse muscle, 21 days, radiogram/histology): induced calcification; also recorded: dystrophic calcification primarily associated with intramuscular adipose tissue; also recorded: ectopic dystrophic calcification formation
- amount of ectopic bone formed versus rhBMP-2 alone (male Swiss-Weber mice; 500 μg BBP with 5 μg rhBMP-2, densitometry): consistently greater
- Bone Area (male Swiss-Weber mice; [6]): 0.159 ± 0.0606 cm^2
- Bone Mineral Content (male Swiss-Weber mice; [6]): 0.00388 ± 0.0017 g
- Bone Area (male Swiss-Weber mice; [7]): 0.226 ± 0.0270 cm^2
- Bone Mineral Content (male Swiss-Weber mice; [7]): 0.00528 ± 0.00068 g
- increase of rhBMP-2 retention (factor) (rhBMP-2 [2]; collagen sponges in muscle pouches, 1, 3 and 7 days, versus vehicle): about two
- retention of rhBMP-2 (fold) (rhBMP-2 [2]; for up to seven days in vitro and in vivo): two
- binding to rhBMP-2 (rhBMP-2 [3]): no significant binding
- fusion by manual palpation (Lewis rats [4]; Group 1: BBP 500 μg only): 0%
- fusion by manual palpation (Lewis rats [4]; Group 2: BBP 1000 μg only): 0%
- fusion with BBP alone (Lewis rats [5]; 500 μg or 1000 μg BBP alone, any time point): none of the animals in low and high dose BBP groups developed fusion at any time points; also recorded: did not provide fusion
- radiological examination, fused, Week 2nd (Lewis rats [5]; high dose BBP only (1000 μg)): 0%
- radiological examination, fused, Week 4th (Lewis rats [5]; high dose BBP only (1000 μg)): 0%
- radiological examination, fused, Week 6th (Lewis rats [5]; high dose BBP only (1000 μg)): 0%
- radiological examination, fused, Week 8th (Lewis rats [5]; high dose BBP only (1000 μg)): 0%
- Histology, fused (Lewis rats [5]; high dose BBP only (1000 μg)): 0%
- Manual Palpation, fused (Lewis rats [5]; high dose BBP only (1000 μg)): 0%
- radiological examination, fused, Week 2nd (Lewis rats [5]; low dose BBP only (500 μg)): 0%
- radiological examination, fused, Week 4th (Lewis rats [5]; low dose BBP only (500 μg)): 0%
- radiological examination, fused, Week 6th (Lewis rats [5]; low dose BBP only (500 μg)): 0%
- radiological examination, fused, Week 8th (Lewis rats [5]; low dose BBP only (500 μg)): 0%
- Histology, fused (Lewis rats [5]; low dose BBP only (500 μg)): 0%
- Manual Palpation, fused (Lewis rats [5]; low dose BBP only (500 μg)): 0%
